# Activity calls are given as the source filed them. The rule behind the calls is not given here.
# Assays:
# PC-3 = experiment: Growth inhibition of human PC3 cells incubated for 48 hrs by sulforhodamine B assay; format: functional
# 786-0 = experiment: Growth inhibition of human 786-0 cells incubated for 48 hrs by sulforhodamine B assay; format: functional
# HT-29 = experiment: Growth inhibition of human HT-29 cells incubated for 48 hrs by sulforhodamine B assay; format: functional
# MCF7 = experiment: Growth inhibition of human MCF7 cells incubated for 48 hrs by sulforhodamine B assay; format: functional
# MDA-MB-231 [1] = experiment: Growth inhibition of human MDA-MB-231 cells incubated for 48 hrs by sulforhodamine B assay; format: functional
# [2] = Cytotoxicity against mouse NIH/3T3 cells assessed as growth inhibition after 48 hrs by SRB assay; format: cell-based, NIH3T3
# [3] = Selectivity index, ratio of GI50 for cytotoxicity against mouse NIH/3T3 cells to GI50 for human PC3 cells; format: toxicity, cell-based; conditions: NIH/3T3 cells and PC3 cells, read-out: RatioGI50
# [4] = Selectivity index, ratio of GI50 for cytotoxicity against mouse NIH/3T3 cells to GI50 for human 786-0 cells
# [5] = Selectivity index, ratio of GI50 for cytotoxicity against mouse NIH/3T3 cells to GI50 for human HT-29 cells; format: toxicity, cell-based; conditions: NIH/3T3 cells and HT-29 cells, read-out: RatioGI50
# [6] = Selectivity index, ratio of GI50 for cytotoxicity against mouse NIH/3T3 cells to GI50 for human MCF7 cells; format: toxicity, cell-based; conditions: NIH/3T3 cells and MCF7 cells, read-out: RatioGI50
# [7] = Selectivity index, ratio of GI50 for cytotoxicity against mouse NIH/3T3 cells to GI50 for human MDA-MB-231 cells; format: toxicity, cell-based; conditions: NIH/3T3 cells and MDA-MB-231 cells, read-out: RatioGI50
# MDA-MB-231 [8] = experiment: Induction of apoptosis in human MDA-MB-231 cells assessed as viable cells at 63 uM after 48 hrs by Annexin-V/7-AAD staining based flow cytometry relative to control; format: functional; conditions: read-out: Activity
# MDA-MB-231 [9] = experiment: Induction of apoptosis in human MDA-MB-231 cells assessed as apoptotic cells at 63 uM after 48 hrs by Annexin-V/7-AAD staining based flow cytometry relative to control; format: functional
# MDA-MB-231 [10] = experiment: Induction of apoptosis in human MDA-MB-231 cells assessed as late apoptotic cells at 63 uM after 48 hrs by Annexin-V/7-AAD staining based flow cytometry relative to control; format: functional
# MDA-MB-231 [11] = experiment: Induction of apoptosis in human MDA-MB-231 cells assessed as necrotic cells at 63 uM after 48 hrs by Annexin-V/7-AAD staining based flow cytometry relative to control; format: functional
# MDA-MB-231 [12] = experiment: Induction of apoptosis in human MDA-MB-231 cells assessed as viable cells at 63 uM after 72 hrs by Annexin-V/7-AAD staining based flow cytometry relative to control; format: functional; conditions: read-out: Activity
# MDA-MB-231 [13] = experiment: Induction of apoptosis in human MDA-MB-231 cells assessed as apoptotic cells at 63 uM after 72 hrs by Annexin-V/7-AAD staining based flow cytometry relative to control; format: functional
# MDA-MB-231 [14] = experiment: Induction of apoptosis in human MDA-MB-231 cells assessed as late apoptotic cells at 63 uM after 72 hrs by Annexin-V/7-AAD staining based flow cytometry relative to control; format: functional
# MDA-MB-231 [15] = experiment: Induction of apoptosis in human MDA-MB-231 cells assessed as necrotic cells at 63 uM after 72 hrs by Annexin-V/7-AAD staining based flow cytometry relative to control; format: functional
# MDA-MB-231 [16] = experiment: Induction of apoptosis in human MDA-MB-231 cells assessed as formation of apoptotic bodies after 48 hrs by Hoechst 33342 staining based analysis relative to control; format: functional
# MDA-MB-231 [17] = experiment: Induction of apoptosis in human MDA-MB-231 cells assessed as formation of apoptotic bodies after 72 hrs by Hoechst 33342 staining based analysis relative to control; format: functional
# MDA-MB-231 [18] = experiment: Induction of morphological changes in human MDA-MB-231 cells assessed as proliferation arrest at 4.4 uM after 48 hrs by acridine orange/ethidium bromide double staining-based fluorescence/phase contrast microscopic analysis; format: functional, cell-based
# MDA-MB-231 [19] = experiment: Induction of morphological changes in human MDA-MB-231 cells assessed as loss of elongated spindle morphology at 4.4 uM after 48 hrs by acridine orange/ethidium bromide double staining-based fluorescence/phase contrast microscopic analysis; format: functional, cell-based
# MDA-MB-231 [20] = experiment: Induction of morphological changes in human MDA-MB-231 cells assessed as reduction in cell contact at 4.4 uM after 48 hrs by acridine orange/ethidium bromide double staining-based fluorescence/phase contrast microscopic analysis; format: functional
# MDA-MB-231 [21] = experiment: Induction of morphological changes in human MDA-MB-231 cells assessed as reduction in cytoplasmic extension at 4.4 uM after 48 hrs by acridine orange/ethidium bromide double staining-based fluorescence/phase contrast microscopic analysis; format: functional, cell-based
# MDA-MB-231 [22] = experiment: Induction of morphological changes in human MDA-MB-231 cells assessed as formation of coarse clusters at 4.4 uM after 72 hrs by acridine orange/ethidium bromide double staining-based fluorescence/phase contrast microscopic analysis; format: functional, cell-based
# MDA-MB-231 [23] = experiment: Induction of morphological changes in human MDA-MB-231 cells assessed as formation of atypical cell clusters at 4.4 uM after 72 hrs by acridine orange/ethidium bromide double staining-based fluorescence/phase contrast microscopic analysis; format: functional
# MDA-MB-231 [24] = experiment: Induction of morphological changes in human MDA-MB-231 cells assessed as reduction in number of cells at 63 uM after 48 hrs by acridine orange/ethidium bromide double staining-based fluorescence/phase contrast microscopic analysis; format: functional, cell-based
# MDA-MB-231 [25] = experiment: Induction of morphological changes in human MDA-MB-231 cells assessed as reduction in number of cells at 63 uM after 72 hrs by acridine orange/ethidium bromide double staining-based fluorescence/phase contrast microscopic analysis; format: functional, cell-based
# MDA-MB-231 [26] = experiment: Induction of morphological changes in human MDA-MB-231 cells assessed as cells with irregular shape at 63 uM after 72 hrs by acridine orange/ethidium bromide double staining-based fluorescence/phase contrast microscopic analysis; format: functional, cell-based
# MDA-MB-231 [27] = experiment: Induction of morphological changes in human MDA-MB-231 cells assessed as loss of cell cell interaction at 63 uM after 72 hrs by acridine orange/ethidium bromide double staining-based fluorescence/phase contrast microscopic analysis; format: functional
# MDA-MB-231 [28] = experiment: Induction of morphological changes in human MDA-MB-231 cells assessed as loss of cell adhesion at 63 uM after 72 hrs by acridine orange/ethidium bromide double staining-based fluorescence/phase contrast microscopic analysis; format: functional
# MDA-MB-231 [29] = experiment: Induction of apoptosis in human MDA-MB-231 cells assessed as chromatin condensation at 63 uM after 48 hrs by acridine orange/ethidium bromide double staining-based fluorescence/phase contrast microscopic analysis; format: functional, cell-based
# MDA-MB-231 [30] = experiment: Induction of apoptosis in human MDA-MB-231 cells assessed as nuclei fragmentation at 63 uM after 48 hrs by acridine orange/ethidium bromide double staining-based fluorescence/phase contrast microscopic analysis; format: functional, cell-based
# MDA-MB-231 [31] = experiment: Induction of apoptosis in human MDA-MB-231 cells assessed as appearance of apoptotic bodies at 63 uM after 48 hrs by acridine orange/ethidium bromide double staining-based fluorescence/phase contrast microscopic analysis; format: functional, cell-based
# MDA-MB-231 [32] = experiment: Induction of apoptosis in human MDA-MB-231 cells assessed as chromatin condensation at 63 uM after 72 hrs by acridine orange/ethidium bromide double staining-based fluorescence/phase contrast microscopic analysis; format: functional, cell-based
# MDA-MB-231 [33] = experiment: Induction of apoptosis in human MDA-MB-231 cells assessed as nuclei fragmentation at 63 uM after 72 hrs by acridine orange/ethidium bromide double staining-based fluorescence/phase contrast microscopic analysis; format: functional, cell-based
# MDA-MB-231 [34] = experiment: Induction of apoptosis in human MDA-MB-231 cells assessed as appearance of apoptotic bodies at 63 uM after 72 hrs by acridine orange/ethidium bromide double staining-based fluorescence/phase contrast microscopic analysis; format: functional, cell-based
# MDA-MB-231 [35] = experiment: Induction of apoptosis in human MDA-MB-231 cells assessed as activation of caspase-3 at 63 uM after 48 hrs by flow cytometry; format: functional, cell-based
# MDA-MB-231 [36] = experiment: Induction of apoptosis in human MDA-MB-231 cells assessed as activation of caspase-3 at 63 uM after 72 hrs by flow cytometry relative to untreated control; format: functional
# MDA-MB-231 [37] = experiment: Induction of apoptosis in human MDA-MB-231 cells assessed as increase in Bax gene expression at 63 uM after 48 hrs by RT-qPCR analysis; format: functional, cell-based
# MDA-MB-231 [38] = experiment: Induction of apoptosis in human MDA-MB-231 cells assessed as reduction in bcl2 gene expression at 63 uM after 48 hrs by RT-qPCR analysis; format: functional, cell-based
# MDA-MB-231 [39] = experiment: Induction of apoptosis in human MDA-MB-231 cells assessed as effect on BIRC5 mRNA expression at 63 uM after 48 hrs by RT-qPCR analysis; format: functional, cell-based
# MDA-MB-231 [40] = experiment: Induction of apoptosis in human MDA-MB-231 cells assessed as increase in Bax/Bcl2 gene expression at 63 uM after 48 hrs by RT-qPCR analysis; format: functional, cell-based
compound,measurement,setting,value
O=c1cccc(/C=C/c2ccccc2)o1,GI50,PC-3,90.4 µM
same,GI50,786-0,176 µM
same,GI50,HT-29,145 µM
same,GI50,MCF7,107 µM
same,GI50,MDA-MB-231 [1],98 µM
same,GI50 at 48 h,[2],1270 µM
same,selectivity ratio,[3],14
same,RatioGI50,[4],7.24
same,selectivity ratio,[5],8.73
same,selectivity ratio at 48 h,[6],11.8
same,selectivity ratio at 48 h,[7],12.9
COc1cccc2c1C(=O)c1c(O)c3c(c(O)c1C2=O)C[C@@](O)(C(=O)CO)C[C@@H]3O[C@H]1C[C@H](N)[C@H](O)[C@H](C)O1 [DOXORUBICIN],GI50,PC-3,0.24 µM
same,GI50,786-0,0.16 µM
same,GI50,HT-29,0.28 µM
same,GI50,MCF7,0.25 µM
same,GI50,MDA-MB-231 [1],1.84 µM
same,GI50 at 48 h,[2],0.28 µM
O=C1C=C[C@@H]2[C@H](c3ccccc3)[C@@H](c3cccc(=O)o3)[C@]2(/C=C/c2ccccc2)O1,GI50,PC-3,69.5 µM
same,GI50,786-0,61.7 µM
same,GI50,HT-29,69.7 µM
same,GI50,MCF7,50.2 µM
same,GI50,MDA-MB-231 [1],4.42 µM
same,GI50 at 48 h,[2],158 µM
same,selectivity ratio,[3],2.27
same,RatioGI50,[4],2.55
same,selectivity ratio,[5],2.26
same,selectivity ratio at 48 h,[6],3.14
same,selectivity ratio at 48 h,[7],35.7
same,viability at 63 µM,MDA-MB-231 [8],28.4%
same,Activity,MDA-MB-231 [9],17%
same,Activity,MDA-MB-231 [10],13%
same,Activity,MDA-MB-231 [11],2%
same,viability at 63 µM,MDA-MB-231 [12],50%
same,Activity,MDA-MB-231 [13],11%
same,Activity,MDA-MB-231 [14],37%
same,Activity,MDA-MB-231 [15],5%
same,Activity,MDA-MB-231 [16],56%
same,Activity,MDA-MB-231 [17],33%
same,Activity,MDA-MB-231 [18],Active
same,Activity,MDA-MB-231 [19],Active
same,Activity,MDA-MB-231 [20],Active
same,Activity,MDA-MB-231 [21],Active
same,Activity,MDA-MB-231 [22],Active
same,Activity,MDA-MB-231 [23],Active
same,Activity,MDA-MB-231 [24],Active
same,Activity,MDA-MB-231 [25],Active
same,Activity,MDA-MB-231 [26],Active
same,Activity,MDA-MB-231 [27],Active
same,Activity,MDA-MB-231 [28],Active
same,Activity,MDA-MB-231 [29],Active
same,Activity,MDA-MB-231 [30],Active
same,Activity,MDA-MB-231 [31],Active
same,Activity,MDA-MB-231 [32],Active
same,Activity,MDA-MB-231 [33],Active
same,Activity,MDA-MB-231 [34],Active
same,Activity,MDA-MB-231 [35],Active
same,fold change (FC),MDA-MB-231 [36],4
same,Activity,MDA-MB-231 [37],Active
same,Activity,MDA-MB-231 [38],inactive
same,Activity,MDA-MB-231 [39],Active
same,Activity,MDA-MB-231 [40],Active
O=c1cccc([C@H]2[C@H](c3ccccc3)[C@H](c3cccc(=O)o3)[C@H]2c2ccccc2)o1,GI50,PC-3,96.3 µM
same,GI50,786-0,567 µM
same,GI50,HT-29,88.7 µM
same,GI50,MCF7,12.2 µM
same,GI50,MDA-MB-231 [1],34.2 µM
same,GI50 at 48 h,[2],503 µM
same,selectivity ratio,[3],5.22
same,RatioGI50,[4],0.88
same,selectivity ratio,[5],5.67
same,selectivity ratio at 48 h,[6],41.1
same,selectivity ratio at 48 h,[7],14.7

# From ChEMBL document CHEMBL4715896, “A styrylpyrone dimer isolated from Aniba heringeri causes apoptosis in MDA-MB-231 triple-negative breast cancer cells” (Bioorg Med Chem, 2021)
